# Measured values: a melting point compilation (Tetko et al.; mined from patent text by program, amines drawn as free bases though some values may be those of a salt)
row,Compound,melting point [°C]
1,CON=C(C(=O)O)c1cccc(OC)c1,97 to 98
2,CON(c1ccc([N+](=O)[O-])cc1[N+](=O)[O-])S(=O)(=O)c1ccc(C)cc1,146 to 148
3,CN(c1cccc(-c2ccnc3c(C(=O)c4cccs4)cnn23)c1)S(C)(=O)=O,169 to 170
4,COc1ccc(C2=NN(CCCCCCBr)C(=O)[C@H]3CC=CC[C@@H]23)cc1OC (relative stereo),55 to 56
5,COc1cccc(Cn2nc3oc(=O)cc(C)c3c2C)c1,148 to 151
6,CSCCOC(=O)N(C)c1nnc(-c2cncc(F)c2)s1,104 to 106
7,CN1C(=O)CC(=O)N(c2ccccc2)C1=O,124
8,CCOC(=O)C1C(=O)Nc2ccccc2SC1c1ccccc1 (stereo not drawn),199
9,CCOC(=O)c1c(-c2ccccc2)cn2ccccc12,101 to 103
10,CCOC(=O)c1cc(O)cc(C(=O)OCC)c1,106
11,CC(C)NC1=NS(=O)(=O)c2ccc(S(=O)(=O)c3ccccc3)cc2N1,178 to 180
12,CC(C)(C)OC(=O)Nc1cc(OC(C)(C)C)c(C#Cc2ccc(F)cc2)cc1[N+](=O)[O-],201
13,OC(CCl)(Cc1c(Cl)cccc1Cl)c1ccc(Cl)cc1Cl (stereo not drawn),117
14,CC(C)(C)OC(=O)Nc1ccc(-c2ccc(OCc3ccccc3)nc2)cc1[N+](=O)[O-],119 to 122
15,CC#CCC/C=C/CC(=O)O,43 to 45
16,Nc1ncnc2c1ncn2C[C@@H]1O[C@H](CO)[C@@H](O)[C@@H]1O,107 to 109
17,COCOc1cc(CCC(=O)c2c(OC)cc(OC)c(CCC(C)C)c2O)ccc1OC,93.5 to 94.5

row,Compound,melting point [°C]
1,O=C(NNS(=O)(=O)c1ccccc1)c1cccc2cccnc12,173 to 175
2,Nc1c(C2=CCCCC2)c(-c2ccccc2)nn1-c1ccccc1,115 to 117
3,C=CCOC(=O)NC(=O)C(C)(c1ccccc1)c1ccccc1,89
4,O=C(O)CCCCCC(=O)CCc1ccc(Cl)cc1,93 to 96
5,N#CC1CN1C(=O)NC(=O)c1cc2ccccc2o1 (stereo not drawn),190 to 192
6,CCOP(=O)(/C=C/c1cn(-c2ccccc2)nc1OCc1ccc(OCc2nc(-c3cccnc3)oc2C)c(OC)c1)OCC,128 to 129
7,COc1cn(-c2ccc(N3CC=CC3)cc2F)nc(-c2ccnn2-c2ccccc2)c1=O,204 to 207
8,CN(C)C(=O)c1ccc(Cl)c(C#N)c1,193
9,CSC1C(=O)CC2C3CCC4=CC(=O)C=CC4(C)C3(F)C(OC(C)=O)CC12C (stereo not drawn),235 to 237
10,O=[N+]([O-])c1c(NCCC23CCCN2CCC3)cnc2ccccc12,106 to 108
11,O=C(NCCCc1ccccc1)c1ccc2c(c1)C(Cl)(Cl)c1cc(C(=O)NCCCc3ccccc3)ccc1-2,165 to 167
12,CC1CC(=O)NN=C1c1ccc2c(c1)N(C(C)C)C(=O)C(C)O2 (stereo not drawn),204 to 205
13,N=C(N)NCCc1ccc(OCCC(c2ccc(Cl)cc2)(c2ccc(Cl)cc2)c2ccc(Cl)cc2)cc1,146 to 150
14,Nc1ccc(-c2ccncc2)cc1[N+](=O)[O-],234 to 238
15,Cc1cc(/C=C/C(=O)O)c(C)n1-c1ccc(C(=O)N(C)C)cc1,182 to 184
16,COC(=O)c1ccc(-c2nc(-c3ccccc3)co2)cc1,175 to 176

# The remaining lines, values ahead:
row,melting point [°C],Compound
1,236 to 238,COc1ncccc1C(=O)NC1CNCCn2c1nc(-c1ccncn1)cc2=O (racemic)
2,163 to 165,CCCCOc1ccccc1-c1ncc(C(=O)O)c(=O)[nH]1
3,94 to 95,CCn1nc(Cl)c2ccn(-c3ccc(C)cc3C)c2c1=O
4,122 to 123,Cc1cc(Cc2nnc(Nc3cc(Br)cc(C(F)(F)F)c3)c3ccccc23)ccn1
5,228 to 231,CCc1cc2c(=O)c3cccc(C(=O)OC)c3n(Cc3ccc(-c4ccccc4-c4nnn[nH]4)cc3)c2s1
6,105 to 107,CCOc1ccc(C)cc1NC(=O)Nc1ccc(N2CCN(C(=O)OC(C)(C)C)CC2)cc1
7,249,CNc1nc(Nc2ccc(Cl)cc2F)ncc1N1CCNC1=O
8,228 to 232,NNc1ccnc2c(NC(=O)c3c(Cl)cccc3Cl)cc(C(F)(F)F)cc12
9,172 to 176,CCOC(=O)C1=C(COCC(C)(O)Cn2cnnc2)NC(C)=C(C(=O)OC)C1c1cccc(Cl)c1Cl (stereo not drawn)
10,62 to 67,N#Cc1ccc(OCC(F)(F)F)c(F)c1
11,165,CCN1CCc2ccc(Nc3ncc(Cl)c(N[C@@H]4CCCC[C@H]4NC(=O)C(F)(F)F)n3)cc2CC1
12,215,O=C(O)c1ccc(SCc2c(O[C@H](Cn3ccnc3)c3ccccc3)ccc3c2CCCC3=O)cc1
13,160 to 161,O=C(N[C@H](Cc1cccc(OCC(F)(F)C(F)F)c1)[C@@H](O)c1ccc(F)cc1)c1ccc(F)c2ccccc12 (racemic)
14,210 to 211,O=C(C=Cc1ccc(CNCC2CCCCC2O)cc1)Nc1ccc(-c2ccc(Cl)cc2)cc1 (stereo not drawn)
15,285 to 289,CCn1cc(C(=O)O)c(=O)c2cc(F)c(-c3ccnc(CN)n3)c(F)c21
16,131 to 134,CC(C)C(=O)N1CCC(C2(c3cccc(-c4ccccc4)c3)N=C(N)N(C)C2=O)CC1 (stereo not drawn)
17,190 to 192,Cc1c(C(N)=O)c2ccccc2n2c(N(C)C)nc(-c3noc(C4CC4)n3)c12
18,208 to 209,O=C(Nc1cc(-c2ccc(Cl)cc2)no1)c1c(Cl)cccc1Cl

row,melting point [°C],Compound
1,36 to 38,CC(=O)c1ccc(C2=CCCCCC2)cc1
2,145 to 148,N#Cc1ccc(NC(=O)CCC2CCCC(=O)O2)cc1 (stereo not drawn)
3,130 to 131,CC=Cn1c(C)c(C)c2cnnc(NCc3ccccc3)c21
4,88 to 89,CCCCC1(CCCC)CCc2ccc(OCc3ccc4ccccc4n3)cc2C1=O
5,185 to 187,Cc1nc2n(n1)C(N1CCN(C)CC1)=Nc1ccccc1C2
6,170 to 172,COC(=O)c1ccccc1S(=O)(=O)NC(=O)Nc1nc(N)cc(Cl)n1
7,77 to 78,CCOC(=O)C1=CCCCC1S(=O)(=O)Nn1cccc1CC (stereo not drawn)
8,209 to 212,Cc1cc(C(=O)Nc2ccc(S(=O)(=O)C(F)(F)F)cc2Cl)c(O)c(C(C)(C)C)c1
9,130 to 131,CN1CCC2(CC1)CN(c1ccccc1[N+](=O)[O-])c1cc(Cl)ccc12
10,181,Cc1ccc(Cn2nc(CNC(=O)NC(C)(C)C)cc2-c2ccc(Cl)c(Cl)c2)cc1Cl
11,85,COC=C(C(=O)OC)n1ccc2ccc(-c3nccc(-c4ccccc4)n3)cc21
12,196 to 198,CC(=O)NC(=Cc1ccc(C#N)cc1)C(=O)N[C@H](C(=O)O)C1CCCCC1
13,131 to 132,CCCCN(CCCC)C(=O)CN1CC(c2ccc3c(c2)OCO3)C(C(=O)O)C1c1ccncc1 (stereo not drawn)
14,170,O=C(Cc1ccccc1N1CCCC1)N1C[C@@H]2[C@H](F)CCC(c3ccccc3)(c3ccccc3)[C@@H]2C1
15,180 to 182,O=C(Nc1cccc(S(=O)(=O)N2CCCC2CO)c1)c1cnn2c(C3CC3)cc(-c3ccc(Cl)cc3)nc12 (stereo not drawn)
16,130 to 132,O=Cc1cc(C(F)(F)F)ccc1Sc1ccccc1F
17,189 to 190,COc1ccc(C(=O)Nc2ccccc2)cc1NS(=O)(=O)c1cc(Cl)sc1Cl
